In US20120225889A1, “USE OF MACROCYCLIC LACTONE DERIVATIVES FOR THE TREATMENT OF INFLAMMATORY DISORDERS” (PIRAMAL LIFE SCIENCES LIMITED, priority 2010, published 2012) one finds IC50 data, which are given here for two compounds.

pIC50: −log10 of the molar value. Read-outs that look alike come from different tables or passages of the source.

Format in all cases: cell-based
The subject of experiment [1] is IL-6. The experiment in a line: Screening in LPS stimulated THP-1 cells: IL-6. The conditions noted are these: Homo sapiens, 24 h, ELISA. How it is done: (§1) IL-6 (BD Biosciences, USA) production by LPS (Escherchia coli 0127:B8, Sigma, USA) in THP-1 cells (ATCC number: TIB202) was designed as in reference, Journal of Immunology, 151, 5631-5638, (1993), the disclosure of which is incorporated by reference for the teaching of the assay.
(§2) THP-1 cells were cultured in RPMI 1640 culture medium (Gibco BRL, UK) containing 100 U/mL penicillin and […] streptomycin, (100× solution, Sigma, USA) containing 10% FBS (JRH Biosciences, USA). 25,000 cells were seeded per well in 96-well plate (Nunc, USA). The cells were differentiated with PMA (Sigma, USA, prepared as 100 μg/mL stock in RPMI and was diluted to 5 ng/mL). The test compound (prepared as 20 mM stock in DMSO and diluted with DMSO to achieve the following final concentrations in the assay: 100, 10, 1, 0.1, 0.01, 0.001 and 0.0001 μM) or vehicle (0.5% DMSO) were added to the cells and the cells were incubated for 30 min at 37° C. LPS (Sigma, USA, prepared as 1 mg/mL stock in PBS) was added to achieve a final concentration of 1 μg/mL. Plates were incubated at 37° C. for 24 h at 5% CO2. Supernatants were harvested, and assayed for TNF-α and IL-6 by ELISA as described by the manufacturer (BD Biosciences, USA). Percent inhibition of cytokine release compared to the control was calculated. The IC50 values were calculated by a nonlinear regression method.

Experiment [2] concerns TNF-α. The experiment in a line: Screening in LPS stimulated THP-1 cells: TNF-α. The settings on record: Homo sapiens, 24 h, ELISA. How it is done: as §1, §2
In experiment [3] the test system is IL-6. The experiment in a line: Human monocyte assay (LPS-induced): IL-6. The conditions noted are these: LPS stimulated human monocytes, 5 h. From the text: (§3) The assay was designed as in reference, Physiological Research, 52, 593-598, (2003), the disclosure of which is incorporated by reference for the teaching of the assay.
(§4) The objective of the assay is to determine whether compounds of the present invention—mediated inhibition of LPS-induced cytokines from monocytic THP-1 cell line translates to physiologically relevant human cells. Accordingly, the effect of compounds of the present invention on LPS—induced cytokine production from freshly isolated human monocytes was ascertained.
Peripheral blood was collected from healthy donors into potassium EDTA vacutainer tubes (BD Biosciences, USA). hPBMCs were isolated using density gradient separation (Histopaque-1077; Sigma, USA) and suspended in assay medium which is RPMI culture medium (Sigma, USA) containing 10% heat inactivated FBS (JRH Biosciences, Australia), 100 U/mL penicillin (Sigma, USA) and […] streptomycin (Sigma, USA). Monocytes in the hPBMCs were counted using a Coulter Counter following which the cells were resuspended at 2×10^5 monocytes/mL of assay medium. A cell suspension containing 2×10^4 monocytes was aliquoted per well of a 96-well plate (Nunc, USA). Subsequently, the hPBMCs were incubated for 4-5 h at 37° C., 5% CO2. During the incubation, the monocytes adhered to the bottom of 96-well plate. Following the incubation, the non-adherent lymphocytes were washed and assay medium was added to adherent monocytes. After 48 h of incubation at 37° C., 5% CO2, monocytes were pre-treated with various concentrations of test compound (prepared as 20 mM stock in DMSO; 1 μL of […] concentrated solution of test compound was dissolved in 200 μL cell suspension to achieve a final concentration of 0.03, 0.1, 0.3, 1, 3, 10, 30 and 100 μM) or vehicle (0.5% DMSO) or 10 μM dexamethasone (standard IL-6 and TNF-α inhibitor, Sigma, USA) for 30 min at 37° C., 5% CO2 and stimulated with 1 μg/mL LPS (Escherchia coli 0111:B4, Sigma, USA). The cells were then incubated for 5 h at 37° C., 5% CO2 following which supernatants were collected, stored at −70° C. and were assayed later for IL-6, and TNF-α by ELISA (OptiEIA ELISA sets, BD Biosciences, USA). The IC50 values were calculated by a nonlinear regression method using Graph Pad software (Prism 3.03).

Experiment [4] has as its system TNF-α. Nature of the experiment: Human monocyte assay (LPS-induced): TNF-α. The settings on record: LPS stimulated human monocytes, 5 h.
From the text: as §3, §4
Peripheral blood was collected from healthy donors into potassium EDTA vacutainer tubes (BD Biosciences, USA). hPBMCs were isolated using density gradient separation (Histopaque-1077; Sigma, USA) and suspended in assay medium which is RPMI culture medium (Sigma, USA) containing 10% heat inactivated FBS (JRH Biosciences, Australia), 100 U/mL penicillin (Sigma, USA) and […] streptomycin (Sigma, USA). Monocytes in the hPBMCs were counted using a Coulter Counter following which the cells were resuspended at 2×10^5 monocytes/mL of assay medium. A cell suspension containing 2×10^4 monocytes was aliquoted per well of a 96-well plate (Nunc, USA). Subsequently, the hPBMCs were incubated for 4-5 h at 37° C., 5% CO2. […] The IC50 values were calculated by a nonlinear regression method using Graph Pad software (Prism 3.03).

The next experiment relates to hPBMCs. The experiment in a line: Lymphocyte proliferation assay (T-cell proliferation of normal hPBMCs). The settings on record: Homo sapiens, tritiated thymidine. From the text: The assay method was designed as in references, The Journal of Immunology, 153, 1-9, (1994), and Clinical and Diagnostic Laboratory Immunology, 7, 687-692, (2000), the disclosure of which is incorporated by reference for the teaching of the assay.
hPBMCs were obtained from healthy donors by centrifugation of heparinized venous blood over Ficoll/Hypaque solution (Histopaque-1077, Sigma, USA). Isolated hPBMCs were suspended in RPMI 1640 culture medium supplemented with 10% FBS and seeded at a density of 50,000 cells/well in a 96-well plate (Nunc, USA). The cells were incubated at 37° C., 5% CO2 for a period of 24 h. These cells were used for the lymphocyte proliferation as well as cytokine release assay.
The plated cells were treated with different concentrations of the test compound (prepared as 20 mM stock in DMSO and diluted with DMSO to achieve the following final concentrations in the assay: 100, 10, 1, 0.1, 0.01, 0.001 and 0.0001 μM) and were incubated for 30 min. The cells were then stimulated with 5 ng/mL PMA (Sigma, USA, prepared as 100 μg/mL stock in RPMI and was diluted to 5 ng/mL) and 5 μg/mL PHA (Sigma, USA, prepared as a 1 mg/mL stock in RPMI). The plates were incubated at 37° C., 5% CO2 for 48 h. The cells were treated overnight with 0.1 μCi of tritiated thymidine per well (obtained from BARC, India; prepared as stock of 1 mCi/mL) and was diluted in KRPH buffer to 10 μCi/mL and […] and was added per well to obtain a final concentration 0.1 μCi/well) and at the end of 48 h, the anti-proliferative effect of the compound was measured using the following formula: […]
Controls consisted of hPBMCs with PHA and PMA (Stimulated), hPBMCs with RPMI (Un-stimulated), hPBMCs with FK506 (positive control, Sigma, USA, prepared as 20 mM stock in DMSO and diluted with DMSO to achieve the following final concentrations in the assay: 100, 10, 1, 0.1, 0.01, 0.001 and 0.0001 μM).

As for `C/C=C/C(O)C(C)/C=C/C(=O)C(C)C(O)C(C)C1OC(=O)/C(OC)=C/C(C)=C/C(C)C(O)C(CC)C(O)C(C)C/C(C)=C/C=C/C1OC` (stereo not drawn) [Compound of example 6, (3Z,5E,13E,15E)-18-((6E,10E)-3,9-Dihydroxy-4,8-dimethyl-5-oxododeca-6,10-dien-2-yl)-9-ethyl-8,10-dihydroxy-3,17-dimethoxy-5,7,11,13-tetramethyloxacyclooctadeca-3,5,13,15-tetraen-2-one], the pIC50 was 7.00 in the experiment on IL-6 [1], < 4.00 with TNF-α [2], 6.22 with IL-6 [3] and 5.30 in the experiment with TNF-α [4].
For `C=CC[C@@H]1/C=C(\C)C[C@H](C)C[C@H](OC)[C@H]2O[C@@](O)(C(=O)C(=O)N3CCCC[C@H]3C(=O)O[C@H](/C(C)=C/[C@@H]3CC[C@@H](O)[C@H](OC)C3)[C@H](C)[C@@H](O)CC1=O)[C@H](C)C[C@@H]2OC` [FK506, reference compound], the pIC50 in the experiment with hPBMCs (hPBMCs stimulated with PMA and PHA, read-out: Stimulated hPBMC's IC50 (inhibition of cell proliferation)) was > 9.00; in the experiment on hPBMCs (unstimulated hPBMCs, read-out: Unstimulated hPBMC's IC50 (inhibition of cell proliferation)), 5.70.
